# Tests used:
# [1] = tested on: TNF-α-induced genes / expressed genes; test: RNA-seq of 4sU-labeled newly synthesized RNA, with or without TNFα; assay type: cell-based, human; conditions: 4sU labeling
# Description: Cells treated with DMSO or SPI-21 with or without TNFα were metabolically labeled with […] and then RNA was extracted, biotinylated and the newly synthesized transcripts were isolated with streptavidin magnetic beads and subjected to RNA-Seq. Reads were mapped and differentially expressed genes were determined.
# High-throughput sequencing of the total, labeled and Run-On transcripts (RNA-Seq and Gro-seq)—_The RNA-Seq libraries were prepared by the Genomics unit in The Nancy and Stephen Grand Israel National Center for Personalized Medicine (G-INCPM, Weizmann Institute of Science). Samples from 2-hour SPI treatment were prepared using in-house mRNA Seq protocol and polyA capturing and those from 24-hpur and 4sU treatments were prepared using the same protocol w/o PolyA capture (with random hexamers), and sequenced using an Illumina HiSeq 2500 system yielding about 30M SE reads of 61 bases. The GRO-seq RNA samples were reverse transcribed and amplified (15 cycles) using in-house mRNA Seq protocol w/o PolyA capture (with random hexamers) and sequenced in one lane using an Illumina HiSeq High Output (480 million reads, yielding more than 100M SE reads of 47 bases per sample). Each RNA-Seq analysis was carried out using two independent replicates.
# RNA-Seq and GRO-seq Bioinformatics analysis—_For the analysis of the 24 h, 4sU and GRO-seq data, we used the RNA-Seq pipeline of UTAP (Kohen et al. 2019) to determine the differentially expressed genes. For the 2-hour data, reads were mapped to the H. sapiens GRCh38 reference genome using STAR (Dobin et al., 2013) and expression levels for each gene were quantified using htseq-count (Anders et al., 2015). Differentially expressed genes were identified using DESeq2 (Love et al., 2014). […] The reads coverage was calculated using bed files containing the desired genomic regions and orientation (awk command) and the bedtools coverage tool (Quinlan et al., 2010).
# To validate that the effects of SPIs are at the transcriptional level, cellular RNA was metabolically labeled with 4-thiouridine (4sU) for 2 hours in the presence of DMSO or SPI-21 in the presence or absence of TNFα. Newly synthesized labeled RNA was then purified and subjected to RNA-seq. […] Thus, the observed reduction in TNFα activation by SPI-21 is highly specific and is a consequence of diminished transcription.
# TNFα-induced IL6 mRNA = test: Dose-response on TNFα-induced IL6 mRNA levels; assay type: cell-based, human; conditions: read-out: IC50, inflammatory gene inhibition (TNFα-induced transcription, FIG. 3D)
# Description: Bars represent the mean of at least 3±SEM independent experiments. The asterisks denote statistical significance differences relative to DMSO+TNFα control according to Student's t tests (typically one tailed, paired): *p<0.05; **p<0.01; ***p<0.005; ****p<0.001. […] Shown are mRNA levels of A20 (normalized to GAPDH) in Hela cells treated with SPI-21 and TNFα and incubated with actinomycin D for the indicated time points, as determined by real-time qPCR. The data points present the mean of 3±SEM independent experiments. […] Shown are levels of mature and immature transcripts in cells incubated for 1 hour with DMSO (vehicle control) or 50 μM of SPI-21 or SPI-18 followed by treatment with TNFα for an additional one hour, as determined by real-time qPCR using primers spanning exons 3 and 4 (mature, black arrows shown in the scheme of G, SEQ ID NOs: 47 and 48) or intron 1 and exon 2 (immature, red arrows shown in the scheme of G, SEQ ID NOs: 49 and 50). […] DMSO (vehicle control), SPI-21 or SPI-18 treated cells were induced by TNFα for the indicated times and the levels of IκBα and β-Tubulin proteins were analyzed by western blot as indicated. […] The occupancy of the A20 gene was analyzed by qPCR using primers from the first (A, SEQ ID NOs: 55 and 56), third (B, SEQ ID NOs: 57 and 58) and last (C, SEQ ID NOs: 59 and 60) exon-intron junctions. […]
Compound,fraction of TNF-α-induced genes downregulated ([1]; TNFα),number of TNF-α-induced genes (of 467) downregulated ([1]; TNFα),fraction of expressed genes downregulated ([1]; basal conditions),"number of expressed genes (of 13,890) downregulated ([1]; basal conditions)",IC50 (TNFα-induced IL6 mRNA)
COc1ccc(C=CC(=O)c2cc(O)ccc2O)cc1 [SPI-21],61%,285 genes,2.2%,301 genes,
Nc1ccccc1SC(CC(=O)c1cccs1)c1cccs1 (centres unmarked) [SPI-18],,,,,39 µM

# Reference: patent US12661353B2, “SPT5 inhibitors and uses thereof” (Yeda Research and Development Co. Ltd., priority 2020, dated 2026)
